Test results published in the OligoGym collection.
Where “and” joins values, the source holds several entries; their conditions need not be identical. Equal values may be shown once. After the bases stand the sugars from the 5' end (letter, count) and the backbone: PS all phosphorothioate, else s phosphorothioate and o phosphodiester by linkage. HELM strings list units from the 5' end as sugar, base in round brackets, then linkage (d deoxyribose, r ribose, m 2'-O-methyl, p phosphodiester). Methylation of C is not given here. [moe] = 2'-O-(2-methoxyethyl) (MOE); [cEt] = constrained ethyl (cEt); [sp] = phosphorothioate linkage; e = 2'-O-(2-methoxyethyl) (MOE); k = constrained ethyl (cEt); d = 2'-deoxy (DNA)

Tests used:
IRF5 = conditions: ASO
HBV = conditions: ASO

Substance	target mRNA inhibition (IRF5; KARPAS-229, 4 µM)	other results
TGAGTCATGGGCTGAG (sugars kkddddddddkekekk, PS)	0%	–
AGGAGTGAGACGAGCA (sugars kdddddddddkekeke, PS)	0%	–
AGCTTGGTCTTGACCT (sugars kddddddddddkekek, PS)	0%	–
CATTCCATATACACAC (sugars k3 d10 k3, PS)	28%	–
GCTTGGTCTTGACCTC (sugars kdddddddddkekeke, PS)	17%	–
TTGCCTTCTGCAGGGA (sugars k3 d10 k3, PS)	0%	–
GGTTCTTGGACTCTCA (sugars kkdddddddddkdkdk, PS)	29%	–
TTATTTCTGCTCCAGG (sugars kkkddddddddkekek, PS)	23%	–
GCTGTCACATCTCCAC (sugars k3 d9 k3 e1, PS)	23%	–
ACTGACACAGGCGGAT (sugars kkdddddddddkekek, PS)	0%	–
CGGTCTTTGAGGTCTG (sugars kkdddddddddkekek, PS)	44%	–
AGGAGTGAGACGAGCA (sugars kkddddddddkekekk, PS)	35%	–
CATTCCATATACACAC (sugars kdddddddddkekeke, PS)	7%	–
ATCACCACTGTGTACC (sugars kkkddddddddkdkdk, PS)	0%	–
TTATTTCTGCTCCAGG (sugars kkddddddddddkeke, PS)	26%	–
CTGATATGATACCTAA (sugars k3 d2 k1 d7 k3, PS)	–	target mRNA inhibition (IRF5; A-431, 0.00412 µM): 18%; target mRNA inhibition (IRF5; A-431, 0.01225 µM): 23%; target mRNA inhibition (IRF5; A-431, 0.03704 µM): 41%; target mRNA inhibition (IRF5; A-431, 0.11111 µM): 63%; target mRNA inhibition (IRF5; A-431, 0.33333 µM): 80%; target mRNA inhibition (IRF5; A-431, 1 µM): 75%
GCATTCCATATACACA (sugars kddddddddddkekek, PS)	39%	–
CAATGCAACATCCATC (sugars kdddddddddkekeke, PS)	0%	–
CTTGGTCTTGACCTCC (sugars kekdddddddddeekk, PS)	36%	–

Substance	target mRNA inhibition (IRF5; KARPAS-229, 4 µM)	other results
GAGTCATGGGCTGAGG (sugars k3 d9 k3 e1, PS)	0%	–
GTTGAATTTTGTGACT (sugars k3 d9 k3 d1, PS)	0%	–
AAGGGCACAGCGCAGG (sugars k3 d10 k3, PS)	48% and 42%	–
ATCACCACTGTGTACC (sugars kekdddddddddeekk, PS)	0%	–
TCACCACTGTGTACCC (sugars kkddddddddddkeke, PS)	0%	–
TCCAATTTTGCATTCC (sugars kddddddddddkekek, PS)	37%	–
CTTGGTCTTGACCTCC (sugars kdddddddddkekeke, PS)	0%	–
CTTGGTCTTGACCTCC (sugars k2 d9 e3 k2, PS)	11%	–
CTGTCACATCTCCACA (sugars kkdddddddddkekek, PS)	23%	–
AGGTTCTTGGACTCTC (sugars kekdddddddddeekk, PS)	0%	–
AGGTTCTTGGACTCTC (sugars kkkddddddddkdkdk, PS)	0%	–
ACCATTCTATGCCTTT (sugars kkddddddddkekekk, PS)	0%	–
CACCACTGTGTACCCC (sugars kkddddddddkekekk, PS)	0%	–
GTCTAGTGTCATGGAA (sugars kddddddddddkekek, PS)	42%	–
TTGTGACTGTATTACC (sugars k3 d10 k3, PS)	56%	–
ATGGTGTTATCTCCGT (sugars kddddddddddkekek, PS)	0%	–
TGATTCCAATTTTGCA (sugars k3 d10 k3, PS)	17%	–
CATTCCATATACACAC (sugars kkddddddddkekekk, PS)	17%	–
GGTCTTGACCTCCCGC (sugars kekdddddddddeekk, PS)	33%	–

Substance	target mRNA inhibition (IRF5; KARPAS-229, 4 µM)	other results
ACATCTCCACATCAGT (sugars k3 d9 k3 e1, PS)	11%	–
CGGTCTTTGAGGTCTG (sugars kkkddddddddkdkdk, PS)	57%	–
GTCTTGACCTCCCGCT (sugars kkddddddddddkeke, PS)	65% and 69%	target mRNA inhibition (IRF5; KARPAS-229, 0.44444 µM): 38%; target mRNA inhibition (IRF5; KARPAS-229, 1.33333 µM): 47%; target mRNA inhibition (IRF5; KARPAS-229, 12 µM): 78%
RNA1{[moe](C)[sp].[moe](T)[sp].[moe](G)[sp].d(A)[sp].d(A)[sp].d(C)[sp].d(A)[sp].d(A)[sp].d(A)[sp].d(T)[sp].d(G)[sp].d(G)[sp].d(C)[sp].[cEt](A)[sp].[cEt](C)[sp].[cEt](T)}$$$$V2.0	–	target mRNA inhibition (HBV; HepG2, 0.07 µM): 64% and 74%
RNA1{[moe](A)[sp].[cEt](C)[sp].d(T)[sp].d(G)[sp].d(G)[sp].d(A)[sp].d(G)[sp].d(C)[sp].d(C)[sp].d(A)[sp].d(C)[sp].d(C)[sp].[cEt](A)[sp].[moe](G)[sp].[cEt](C)[sp].[moe](A)}$$$$V2.0	–	target mRNA inhibition (HBV; HepG2, 0.07 µM): 67% and 55%
RNA1{[moe](T)[sp].[moe](G)[sp].[moe](C)[sp].d(A)[sp].d(G)[sp].d(A)[sp].d(G)[sp].d(G)[sp].d(T)[sp].d(G)[sp].d(A)[sp].d(A)[sp].d(G)[sp].[cEt](C)[sp].[cEt](G)[sp].[cEt](A)}$$$$V2.0	–	target mRNA inhibition (HBV; HepG2, 0.07 µM): 78% and 79%
RNA1{[moe](C)[sp].[moe](C)[sp].[moe](G)[sp].[moe](C)[sp].d(A)[sp].d(G)[sp].d(T)[sp].d(A)[sp].d(T)[sp].d(G)[sp].d(G)[sp].d(A)[sp].d(T)[sp].[moe](C)[sp].[moe](G)[sp].[moe](G)[sp].[moe](C)}$$$$V2.0	–	target mRNA inhibition (HBV; HepG2, 0.0092593 µM): 0%; target mRNA inhibition (HBV; HepG2, 0.0277778 µM): 38%; target mRNA inhibition (HBV; HepG2, 0.07 µM): 87% and 74%; target mRNA inhibition (HBV; HepG2, 0.0833333 µM): 69%; target mRNA inhibition (HBV; HepG2, 0.25 µM): 86%
RNA1{[moe](T)[sp].[moe](C)[sp].d(C)[sp].d(G)[sp].d(C)[sp].d(A)[sp].d(G)[sp].d(T)[sp].d(A)[sp].d(T)[sp].d(G)[sp].[moe](G)[sp].[moe](A)[sp].[moe](T)[sp].[moe](C)[sp].[moe](G)}$$$$V2.0	–	target mRNA inhibition (HBV; HepG2, 0.07 µM): 70% and 62%
RNA1{[moe](G)[sp].[cEt](A)[sp].[cEt](G)[sp].d(G)[sp].d(T)[sp].d(G)[sp].d(A)[sp].d(A)[sp].d(G)[sp].d(C)[sp].d(G)[sp].d(A)[sp].d(A)[sp].[cEt](G)[sp].[cEt](T)[sp].[moe](G)}$$$$V2.0	–	target mRNA inhibition (HBV; HepG2, 0.07 µM): 71%
RNA1{[moe](C)[sp].[moe](G)[sp].[moe](A)[sp].d(A)[sp].d(C)[sp].d(C)[sp].d(A)[sp].d(C)[sp].d(T)[sp].d(G)[sp].d(A)[sp].d(A)[sp].[moe](C)[sp].[moe](A)[sp].[moe](A)[sp].[moe](A)}$$$$V2.0	–	target mRNA inhibition (HBV; HepG2, 0.07 µM): 48% and 28%
RNA1{[moe](G)[sp].[moe](A)[sp].[moe](A)[sp].[moe](G)[sp].[moe](C)[sp].d(G)[sp].d(A)[sp].d(A)[sp].d(G)[sp].d(T)[sp].d(G)[sp].d(C)[sp].d(A)[sp].d(C)[sp].[moe](A)[sp].[moe](C)}$$$$V2.0	–	target mRNA inhibition (HBV; HepG2, 0.07 µM): 70% and 67%
RNA1{[moe](A)[sp].[moe](C)[sp].[moe](C)[sp].d(A)[sp].d(C)[sp].d(T)[sp].d(G)[sp].d(A)[sp].d(A)[sp].d(C)[sp].d(A)[sp].d(A)[sp].[moe](A)[sp].[moe](T)[sp].[moe](G)[sp].[moe](G)}$$$$V2.0	–	target mRNA inhibition (HBV; HepG2, 0.07 µM): 0% and 3%
RNA1{[moe](T)[sp].[moe](C)[sp].[moe](C)[sp].[moe](G)[sp].d(C)[sp].d(A)[sp].d(G)[sp].d(T)[sp].d(A)[sp].d(T)[sp].d(G)[sp].d(G)[sp].d(A)[sp].[moe](T)[sp].[moe](C)[sp].[moe](G)[sp].[moe](G)}$$$$V2.0	–	target mRNA inhibition (HBV; HepG2, 0.07 µM): 72% and 65%
RNA1{[moe](G)[sp].[moe](A)[sp].[moe](G)[sp].[moe](T)[sp].d(T)[sp].d(C)[sp].d(C)[sp].d(G)[sp].d(C)[sp].d(A)[sp].d(G)[sp].d(T)[sp].d(A)[sp].[moe](T)[sp].[moe](G)[sp].[moe](G)[sp].[moe](A)}$$$$V2.0	–	target mRNA inhibition (HBV; HepG2, 0.07 µM): 62% and 51%
RNA1{[moe](G)[sp].[moe](T)[sp].[moe](G)[sp].[moe](A)[sp].[moe](A)[sp].d(G)[sp].d(C)[sp].d(G)[sp].d(A)[sp].d(A)[sp].d(G)[sp].d(T)[sp].d(G)[sp].d(C)[sp].[moe](A)[sp].[moe](C)[sp].[moe](A)}$$$$V2.0	–	target mRNA inhibition (HBV; HepG2, 0.0092593 µM): 0%; target mRNA inhibition (HBV; HepG2, 0.0277778 µM): 4%; target mRNA inhibition (HBV; HepG2, 0.07 µM): 77% and 75%; target mRNA inhibition (HBV; HepG2, 0.0833333 µM): 32%; target mRNA inhibition (HBV; HepG2, 0.25 µM): 62%
RNA1{[moe](A)[sp].[moe](C)[sp].[moe](C)[sp].d(A)[sp].d(C)[sp].d(T)[sp].d(G)[sp].d(A)[sp].d(A)[sp].d(C)[sp].d(A)[sp].d(A)[sp].[moe](A)[sp].[moe](T)[sp].[moe](G)[sp].[moe](G)[sp].[moe](C)}$$$$V2.0	–	target mRNA inhibition (HBV; HepG2, 0.07 µM): 78%
RNA1{[moe](C)[sp].[moe](G)[sp].d(A)[sp].d(A)[sp].d(C)[sp].d(C)[sp].d(A)[sp].d(C)[sp].d(T)[sp].d(G)[sp].d(A)[sp].[moe](A)[sp].[moe](C)[sp].[moe](A)[sp].[moe](A)[sp].[moe](A)}$$$$V2.0	–	target mRNA inhibition (HBV; HepG2, 0.07 µM): 37% and 23%
RNA1{[moe](T)[sp].[moe](G)[sp].[moe](G)[sp].d(A)[sp].d(G)[sp].d(C)[sp].d(C)[sp].d(A)[sp].d(C)[sp].d(C)[sp].d(A)[sp].d(G)[sp].d(C)[sp].[cEt](A)[sp].[cEt](G)[sp].[cEt](G)}$$$$V2.0	–	target mRNA inhibition (HBV; HepG2, 0.07 µM): 60% and 67%
RNA1{[moe](T)[sp].[cEt](C)[sp].d(C)[sp].d(A)[sp].d(C)[sp].d(C)[sp].d(A)[sp].d(C)[sp].d(G)[sp].d(A)[sp].d(G)[sp].d(T)[sp].[cEt](C)[sp].[moe](T)[sp].[cEt](A)[sp].[moe](G)}$$$$V2.0	–	target mRNA inhibition (HBV; HepG2, 0.07 µM): 71% and 53%
